In brackets after ≈: the same amount, converted by molar mass. One block for each molecule: values may come before it.
Legend:
Format in all cases: functional
Streptococcus sp. [1] = assay: In vitro minimum inhibitory concentration against Streptococcus species; </=0.06-0.25
Staphylococcus aureus [2] = assay: In vitro minimum inhibitory concentration against Staphylococcus aureus; 2-4
Enterococcus sp. [3] = assay: In vitro minimum inhibitory concentration against Enterococcus species; 2-4
Staphylococcus aureus [4] = assay: In vitro minimum inhibitory concentration against Staphylococcus aureus; 0.25-1
Streptococcus sp. [5] = assay: In vitro minimum inhibitory concentration against Streptococcus species
Enterococcus sp. [6] = assay: In vitro minimum inhibitory concentration against Enterococcus species; 1-2
Enterococcus sp. [7] = assay: In vitro minimum inhibitory concentration against Enterococcus species; 1-4
Staphylococcus aureus [8] = assay: In vitro minimum inhibitory concentration against Staphylococcus aureus; 1-2
Streptococcus sp. [9] = assay: In vitro minimum inhibitory concentration against Streptococcus species; 0.5-4
Enterococcus sp. [10] = assay: In vitro minimum inhibitory concentration against Enterococcus species; 4-64
Staphylococcus aureus [11] = assay: In vitro minimum inhibitory concentration against Staphylococcus aureus; 1-8
Staphylococcus aureus [12] = assay: In vitro minimum inhibitory concentration against Staphylococcus aureus; 0.5->64
Streptococcus sp. [13] = assay: In vitro minimum inhibitory concentration against Streptococcus species; </=0.06-1
Enterococcus sp. [14] = assay: In vitro minimum inhibitory concentration against Enterococcus species; 0.25->64

SMILES: COc1ccc(COC[C@H]2O[C@H](O[C@H]3[C@H](O)[C@H](O)[C@@H](Oc4ccc(C[C@H]5NC(=O)[C@H]([C@@H](C)c6ccccc6)NC(=O)CNC(=O)[C@H](CO)NC(=O)[C@@H]([C@@H](O)[C@@H]6CN=C(N)N6[C@H]6O[C@H](CO)[C@@H](O)[C@H](O)[C@@H]6O)NC(=O)[C@H]([C@@H](O)[C@@H]6CN=C(N)N6)NC5=O)cc4)O[C@@H]3CO)[C@@H](O)[C@@H](O)[C@@H]2O)cc1OCc1ccccc1
MIC (Streptococcus sp. [1]): ≤ 0.06 µg/mL | MIC (Staphylococcus aureus [2]): 2 µg/mL (≈ 1.31 µM) | MIC (Enterococcus sp. [3]): 2 µg/mL (≈ 1.31 µM)

SMILES: C[C@@H](c1ccccc1)[C@@H]1NC(=O)CNC(=O)[C@H](CO)NC(=O)[C@@H]([C@@H](O)[C@@H]2CN=C(N)N2[C@H]2O[C@H](CO)[C@@H](O)[C@H](O)[C@@H]2O)NC(=O)[C@H]([C@@H](O)[C@@H]2CN=C(N)N2)NC(=O)[C@@H](Cc2ccc(O[C@H]3O[C@H](CO)[C@@H](O[C@H]4O[C@H](COCc5ccc(OCc6ccccc6)cc5)[C@@H](O)[C@H](O)[C@@H]4O)[C@H](O)[C@@H]3O)cc2)NC1=O
MIC (Streptococcus sp. [5]): ≤ 0.06 µg/mL | MIC (Enterococcus sp. [7]): 1 µg/mL (≈ 0.67 µM) | MIC (Staphylococcus aureus [8]): 1 µg/mL (≈ 0.67 µM)

SMILES: C[C@@H](c1ccccc1)[C@@H]1NC(=O)CNC(=O)[C@H](CO)NC(=O)[C@@H]([C@@H](O)[C@@H]2CN=C(N)N2[C@H]2O[C@H](CO)[C@@H](O)[C@H](O)[C@@H]2O)NC(=O)[C@H]([C@@H](O)[C@@H]2CN=C(N)N2)NC(=O)[C@@H](Cc2ccc(O[C@H]3O[C@H](CO)[C@@H](O[C@H]4O[C@H](COCc5cccs5)[C@@H](O)[C@H](O)[C@@H]4O)[C@H](O)[C@@H]3O)cc2)NC1=O
MIC (Streptococcus sp. [9]): 0.5 µg/mL (≈ 0.359 µM) | MIC (Enterococcus sp. [10]): 4 µg/mL (≈ 2.87 µM) | MIC (Staphylococcus aureus [11]): 1 µg/mL (≈ 0.719 µM)

Continued, values first:

MIC (Staphylococcus aureus [4]): 0.25 µg/mL (≈ 0.171 µM) | MIC (Streptococcus sp. [5]): ≤ 0.06 µg/mL | MIC (Enterococcus sp. [6]): 1 µg/mL (≈ 0.682 µM)
SMILES: COc1ccc2cc(CO[C@H]3[C@H](O)[C@H](O)[C@@H](O[C@H]4[C@H](O)[C@H](O)[C@@H](Oc5ccc(C[C@H]6NC(=O)[C@H]([C@@H](C)c7ccccc7)NC(=O)CNC(=O)[C@H](CO)NC(=O)[C@@H]([C@@H](O)[C@@H]7CN=C(N)N7[C@H]7O[C@H](CO)[C@@H](O)[C@H](O)[C@@H]7O)NC(=O)[C@H]([C@@H](O)[C@@H]7CN=C(N)N7)NC6=O)cc5)O[C@@H]4CO)O[C@@H]3CO)ccc2c1

MIC (Staphylococcus aureus [12]): 0.5 µg/mL (≈ 0.966 µM) | MIC (Streptococcus sp. [13]): ≤ 0.06 µg/mL | MIC (Enterococcus sp. [14]): 0.25 µg/mL (≈ 0.483 µM)
SMILES: CCN1CCN(C(=O)N[C@@H](C(=O)N[C@@H]2C(=O)N3[C@@H]2SC(C)(C)[C@@H]3C(=O)O)c2ccccc2)C(=O)C1=O [PIPERACILLIN]

Source: ChEMBL document CHEMBL1136816, “Synthesis and evaluation of ether and halogenated derivatives of mannopeptimycin glycopeptide antibiotics” (2003)
